Assay [1] concerns Interleukin-2 (IL-2) production/release. Put plainly: Jurkat IL-2 Production Assay. The class given is cell-based. As to conditions: Homo sapiens; Jurkat T cells clone E6-1, 15 μg/ml PHA for 22 hours, IL-2 in supernatant. The procedure:
Jurkat IL-2 Production Assay
The effect of compounds of the invention on Interleukin-2 (IL-2) production/release was tested in the Jurkat T cell line (ECACC) clone E6-1.
Jurkat T cells were cultured in DMEM/F12/Glutamax (Gibco) containing 10% FCS (Gibco), and maintained at 37° C., 5% CO2. Cell were split twice a week [5*10^6 (Mon-Thu) and 1*10^7 (Thu-Mon) cells/50 ml medium in T-175 ZK culture flasks, respectively].
Prior to experiment, cells were seeded on 96 well plates (Cellstar 96 Well; Cat No. 655180, Greiner bio-one) at a density of 5*10^5 cells/well in DMEM/F12/Glutamax (Gibco) containing 10% FCS (Gibco), and incubated for 60 min at 37° C., 5% CO2. Subsequently, compounds were added and cells were allowed to incubate for 30 min at 37° C., 5% CO2. Cells were then stimulated with 15 μg/ml Phytohemagglutinin (PHA; Sigma) for 22 hours at 37° C., 5% CO2.
Before sampling of the supernatants, cells were spun down (200*g/5 min/RT). The amount of IL-2 released into the supernatant was quantified with the human IL-2 AlphaLisa kit (Perkin Elmer) according to manufacturer's instructions. Luminescence proximity measurements were carried out in the Synergy H4 reader (BioTek) employing the fluorescence setting of the reader (ex: 680/30 nm; em: 620/40 nm).
Inhibition of IL-Production/Release in/from Jurkat T Cells was Quantified as Follows:
Zero percent inhibition (MAX) was defined as the [IL-2] determined in supernatants derived from cells to which PHA & DMSO-only had been added instead of compound. Hundred percent inhibition (MIN) was defined as the [IL-2] determined in supernatants derived from cells that had been pre-treated with 1 μM CyclosporineA (Sigma) before the addition of 15 μg/ml PHA.
For routine IC50 determinations of compounds, 8 concentrations of a serial dilution (1:3.16) were tested, starting off from 10 μM.

The target in another assay is T1, CRAC channel (Homo sapiens, UniProt Q96D31).
T1 construct: host or cells: HEK293
T1 sequence (Q96D31 whole entry): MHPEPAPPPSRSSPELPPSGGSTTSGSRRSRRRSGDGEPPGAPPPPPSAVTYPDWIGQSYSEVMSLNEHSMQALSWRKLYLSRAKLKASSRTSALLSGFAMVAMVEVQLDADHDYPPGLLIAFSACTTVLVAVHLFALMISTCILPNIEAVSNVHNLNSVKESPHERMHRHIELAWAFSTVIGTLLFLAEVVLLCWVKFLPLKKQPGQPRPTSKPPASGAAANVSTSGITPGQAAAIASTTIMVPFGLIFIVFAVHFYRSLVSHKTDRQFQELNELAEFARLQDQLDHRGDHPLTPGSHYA
The assay is described as follows: HEK Calcium Influx Assay (FLIPR). The settings on record: 10 μM; endogenous SOC in HEK293 cells, thapsigargin store depletion, Ca2+ signal 9.5-10 min post-administration; read-out: % inhib.[@ 10 μM] FLIPR. The format is cell-based. The procedure:
The effect of compounds of the invention on intracellular [Ca^2+] was tested in the HEK293 cell line (ECACC).
HEK293 cells were cultured in DMEM/F12/Glutamax (Gibco) containing 10% FCS (Gibco), and maintained at 37° C., 5% CO2. Cell were split twice a week [3*10^6 (Mon-Thu) and 1*10^6 (Thu-Mon) cells/50 ml medium in T-175 ZK culture flasks, respectively]. Twenty four hours pre-experiment, cells were seeded on 96 well plates (Poly-D-Lysine 96well Black/Clear Plate, BD Biocoat REF 356640) at a density of 40,000 cells/well in DMEM/F12 (Gibco) containing 10% FCS (Gibco), and maintained at 37° C., 5% CO2.
Prior to store-depletion, cell culture medium was removed and cells were loaded with the a Calcium-sensitive fluorescent dye comprised within the Calcium-4-assay kit (Molecular Devices) in nominally Ca^2+-free HBS buffer (140 mM NaCl, 4 mM KCl, 0.2 mM MgCl2, 11 mM D-glucose, and 10 mM HEPES, pH 7.4) according to manufacturer's instruction for 60 min at 37° C., 5% CO2.
Passive depletion of intracellular Ca^2+-stores was then triggered by employing the SERCA inhibitor thapsigargin (2 μM final) for 10 min in the dark (RT). To prevent immediate Ca^2+-entry via the activated Store-operated channels (SOCs), cells were maintained in Ca^2+-free HBS buffer comprising 100 μM EGTA during store-depletion.
Intracellular changes in [Ca^2+] were subsequently monitored with the FLIPR device (Molecular Devices). In brief, baseline imaging post-store depletion was allowed for 1 min before adjusting the extracellular buffer to 3 mM CaCl2. Increases in intracellular [Ca^2+] due to pre-activated SOC channels were monitored for 15 min until intracellular Ca^2+ levels had declined into a steady-state. Finally, compounds were administered and Ca^2+ signals were recorded for additional 10 min.
Inhibition of endogenous SOC in HEK293 cells was quantified employing the average Ca^2+ signal measured from 9.5-10 min post-administration. Zero percent inhibition (MAX) was defined as the Ca^2+ signal recorded from wells to which DMSO-only had been added instead of compound. Hundred percent inhibition (MIN) was defined as the signal obtained from wells in which cells haven't been treated with TG prior to Ca^2+ addition and to which DMSO-only had been added instead of compound. For routine IC50 determinations of compounds, 8 concentrations of a serial dilution (1:3.16) were tested, starting off from 10 μM. Reliable IC50's could consequently be determined only, if they were at least sub 2.5-3 μM.

Bounds are passed on as bounds.

As to `COc1cc(F)c(NC(=O)c2cc(-c3cc(OC)ccc3OC)n(C)n2)c(F)c1` [Example 31, N-(2,6-Difluoro-4-methoxy-phenyl)-5-(2,5-dimethoxyphenyl)-1-methyl-1H-pyrazole-3-carboxylic acid amide], the IC50 (as a rule, the concentration at which inhibition is half-maximal) in assay [1] is < 0.5 µM. For the same compound, on CRAC channel, the inhibition at 10 µM was > 70%.
Take `COc1ccc(OC)c(-c2cc(C(=O)Nc3c(C)cccc3F)nn2C)c1` [Example 32, 5-(2,5-Dimethoxyphenyl)-N-(2-fluoro-6-methyl-phenyl)-1-methyl-1H-pyrazole-3-carboxylic acid amide]: the IC50 in assay [1] is < 0.5 µM. Besides, the inhibition at 10 µM on CRAC channel was > 70%.
The matching figures for `COc1ccc(OC)c(-c2cc(C(=O)Nc3c(F)cncc3F)nn2C)c1` [Example 34, N-(3,5-Difluoro-pyridin-4-yl)-5-(2,5-dimethoxyphenyl)-1-methyl-1H-pyrazole-3-carboxylic acid amide]: < 0.5 µM and > 70%.
The matching figures for `COc1ccc(OC)c(-c2cc(C(=O)Nc3c(F)cccc3Cl)nn2C)c1` [Example 35, N-(2-Chloro-6-fluoro-phenyl)-5-(2,5-dimethoxyphenyl)-1-methyl-1H-pyrazole-3-carboxylic acid amide]: < 0.5 µM and > 70%.
The matching figures for `Cn1nc(C(=O)Nc2c(F)cccc2F)cc1-c1cc(C(F)(F)F)ccc1Cl` [Example 36, 5-[2-Chloro-5-(trifluoromethyl)-phenyl]-N-(2,6-difluoro-phenyl)-1-methyl-1H-pyrazole-3-carboxylic acid amide]: < 0.5 µM and > 70%.
In the case of `COc1ccc(OC)c(-c2c(Cl)c(C(=O)Nc3c(F)cccc3F)nn2C)c1` [Example 39, 4-Chloro-N-(2,6-difluoro-phenyl)-5-(2,5-dimethoxyphenyl)-1-methyl-1H-pyrazole-3-carboxylic acid amide], the IC50 in assay [1] was < 0.5 µM. The inhibition at 10 µM at CRAC channel was > 70%.
The matching figures for `COc1ccc(OC)c(-c2c(Cl)c(C(=O)Nc3ccncc3F)nn2C)c1` [Example 40, 4-Chloro-5-(2,5-dimethoxyphenyl)-N-(3-fluoro-pyridin-4-yl)-1-methyl-1H-pyrazole-3-carboxylic acid amide]: 1 to 5 µM and > 70%.
The matching figures for `CCc1c(C(=O)Nc2c(F)cccc2F)nn(C)c1-c1cc(OC)ccc1OC` [Example 42, N-(2,6-Difluoro-phenyl)-5-(2,5-dimethoxyphenyl)-4-ethyl-1-methyl-1H-pyrazole-3-carboxylic acid amide]: 1 to 5 µM and 50 to 70%.
The matching figures for `COc1ccc(OC)c(-c2c(CO)c(C(=O)Nc3c(F)cccc3F)nn2C)c1` [Example 43, N-(2,6-Difluoro-phenyl)-5-(2,5-dimethoxyphenyl)-4-(hydroxymethyl)-1-methyl-1H-pyrazole-3-carboxylic acid amide]: 1 to 5 µM and < 50%.
Consider `COc1ccc(OC)c(-c2c(N)c(C(=O)Nc3c(F)cccc3F)nn2C)c1` [Example 44, 4-Amino-N-(2,6-difluoro-phenyl)-5-(2,5-dimethoxyphenyl)-1-methyl-1H-pyrazole-3-carboxylic acid amide], for which, in assay [1], the concentration for half-maximal inhibition (IC50) lay in the range of 1 to 5 µM. Moreover, the inhibition at 10 µM at CRAC channel lay within 50 to 70%.
The like results for `Cn1nc(C(=O)Nc2c(F)cccc2F)cc1-c1cc(OC(F)(F)F)ccc1C1CC1` [Example 45, 5-[2-Cyclopropyl-5-(trifluoromethyloxy)-phenyl]-N-(2,6-difluoro-phenyl)-1-methyl-1H-pyrazole-3-carboxylic acid amide] were, in that order, 0.5 to 1 µM and > 70%.
The matching figures for `Cn1nc(C(=O)Nc2c(F)cncc2F)cc1-c1cc(OC(F)(F)F)ccc1C1CC1` [Example 46, 5-[2-Cyclopropyl-5-(trifluoromethyloxy)-phenyl]-N-(3,5-difluoro-pyridin-4-yl)-1-methyl-1H-pyrazole-3-carboxylic acid amide]: < 0.5 µM and > 70%.
The like results for `Cn1nc(C(=O)Nc2ccncc2F)cc1-c1cc(OC(F)(F)F)ccc1C1CC1` [Example 47, 5-[2-Cyclopropyl-5-(trifluoromethyloxy)-phenyl]-N-(3-fluoro-pyridin-4-yl)-1-methyl-1H-pyrazole-3-carboxylic acid amide] were, in that order, 1 to 5 µM and > 70%.
Regarding `Cn1nc(C(=O)Nc2c(F)cncc2F)cc1-c1c(F)cccc1C(F)(F)F` [Example 49, N-(3,5-Difluoro-pyridin-4-yl)-5-[2-fluoro-6-(trifluoromethyl)-phenyl]-1-methyl-1H-pyrazole-3-carboxylic acid amide], in assay [1], the IC50 was 1 to 5 µM. Besides, the inhibition at 10 µM on CRAC channel was > 70%.
The like results for `Cn1nc(C(=O)Nc2c(F)cccc2F)cc1-c1c(F)cccc1C(F)(F)F` [Example 51, N-(2,6-Difluoro-phenyl)-5-[2-fluoro-6-(trifluoromethyl)-phenyl]-1-methyl-1H-pyrazole-3-carboxylic acid amide] were, in that order, 1 to 5 µM and 50 to 70%.
The like results for `COc1cc(S(C)(=O)=O)ccc1-c1cc(C(=O)Nc2c(F)cccc2F)nn1C` [Example 66, N-(2,6-Difluoro-phenyl)-5-(2-methoxy-4-methylsulfonyl-phenyl)-1-methyl-1H-pyrazole-3-carboxylic acid amide] were, in that order, 1 to 5 µM and < 50%.
The like results for `CNc1c(C(=O)Nc2c(F)cncc2F)nn(C)c1-c1cc(OC)ccc1OC` [Example 67, N-(3,5-Difluoro-pyridin-4-yl)-5-(2,5-dimethoxyphenyl)-1-methyl-4-methylamino-1H-pyrazole-3-carboxylic acid amide] were, in that order, 1 to 5 µM and < 50%.
